For test [1], the target named is BIR3 domain of human XIAP (residues 252-350) (Homo sapiens (Human), UniProt P98170). Kind of test: XIAP in vitro competitive displacement binding assay (fluorescence polarization). The conditions noted are these: for IC50: read-out: IC50 or PI Xiap: IC50; for inhibition at 0.04 µM: 1 h, read-out: IC50 or PI Xiap: PI. (In general: Polarisation of emitted light reports the rotation of a fluorescent probe.)

Test [2] addresses BIR3 domain of human cIAP-1 (residues 267-363) (Homo sapiens (Human), UniProt Q13490). Kind of test: cIAP-1 in vitro competitive displacement binding assay (fluorescence polarization; Probe A AVPIK(5&6FAM)-amide or Probe B AbuRPFK(5&6FAM)-amide). The conditions noted are these: for inhibition at […]: 3 h, read-out: IC50 or PI cIAP1: PI.
Test [3] relates to EVSA-T (human breast carcinoma). Kind of test: Anti-proliferative activity, Alamar Blue assay, EVSA-T. The test is classed as cell-based. The conditions noted are these: Homo sapiens, EVSA-T, read-out: EVSA-T prolif (EC50). (Resazurin is reduced to fluorescent resorufin, in cell work by metabolically active cells.)
Setting [4] is: Probe B AbuRPFK(5&6FAM)-amide, read-out: IC50 or PI cIAP1: IC50.
The mark [5] stands for this setting: read-out: IC50 or PI cIAP1: IC50.

The IC50 is the concentration needed to halve the response being measured. What is called EC50 is the concentration that produces a half-maximal response.

Counter-ions that a name gives are not always drawn. Like-named read-outs stand apart in the source and are kept apart here.

Turning to `C[C@@H]1CN(CC(=O)N2CC(C)(C)c3cnc(C(F)(F)C4CC4)cc32)[C@@H](CN2CCCC2=O)CN1` [Example 212, 1-{[(2R,5R)-1-{2-[6-(Cyclopropyldifluoromethyl)-3,3-dimethyl-1H,2H,3H-pyrrolo[3,2-c]pyridin-1-yl]-2-oxoethyl}-5-methylpiperazin-2-yl]methyl}pyrrolidin-2-one hydrochloride], the IC50 in test [1] was 45 nM; in test [2], less than 1000 nM; in test [2] (setting [4]), 14 nM. For the same compound, the EC50 in test [3] (72 hours, Alamar Blue) worked out at 270 nM.

Turning to `C[C@@H]1CN(CC(=O)N2CC(C)(C)c3cnc(C(F)(F)c4ccccc4)cc32)[C@@H](CN2CC[C@@H](F)C2)CN1` [Example 213, 1-{6-[Difluoro(phenyl)methyl]-3,3-dimethyl-1H,2H,3H-pyrrolo[3,2-c]pyridin-1-yl}-2-[(2R,5R)-2-{[(3R)-3-fluoropyrrolidin-1-yl]methyl]-5-methylpiperazin-1-yl]ethan-1-one dihydrochloride], the inhibition at 0.04 µM in test [1] is 61%. The inhibition at […] in test [2] is 82%. In addition, the EC50 in test [3] (72 hours, Alamar Blue) was 6 nM.

Regarding `CCC(F)(F)c1cc2c(cn1)C(C)(C)CN2C(=O)CN1C[C@@H](C)NC[C@@H]1CN1CC[C@@H](F)C1` [Example 214, 1-[6-(1,1-Difluoropropyl)-3,3-dimethyl-1H,2H,3H-pyrrolo[3,2-c]pyridin-1-yl]-2-[(2R,5R)-2-{[(3R)-3-fluoropyrrolidin-1-yl]methyl]-5-methylpiperazin-1-yl]ethan-1-one hydrochloride], the IC50 in test [1] was 82 nM; in test [2], less than 1000 nM; in test [2] (setting [4]) it was 24 nM. Further, the concentration giving a half-maximal response (EC50) in test [3] (72 hours, Alamar Blue) came out at 190 nM.

On to `C[C@@H]1CN(CC(=O)N2CC(C)(C)c3cnc(C(F)(F)c4ccccc4)cc32)[C@@H](CN2C(=O)CCC2=O)CN1` [Example 218, 1-{[(2R,5R)-1-(2-{6-[Difluoro(phenyl)methyl]-3,3-dimethyl-1H,2H,3H-pyrrolo[3,2-c]pyridin-1-yl}-2-oxoethyl)-5-methylpiperazin-2-yl]methyl}pyrrolidine-2,5-dione dihydrochloride], for which the IC50 in test [1] stood at 61 nM. Besides, the inhibition at […] in test [2] is 78%. In addition, the EC50 in test [3] (72 h) stood at 65 nM.

As for `C[C@@H]1CN(CC(=O)N2CC(C)(C)c3cnc(Cc4ccc(F)cc4F)cc32)[C@@H](CN2CCOCC2)CN1` [Example 219, 1-{6-[(2,4-Difluorophenyl)methyl]-3,3-dimethyl-1H,2H,3H-pyrrolo[3,2-c]pyridin-1-yl}-2-[(2R,5R)-5-methyl-2-(morpholin-4-ylmethyl)piperazin-1-yl]ethan-1-one dihydrochloride], the IC50 in test [1] was 53 nM. The inhibition at […] in test [2] is 93%. Moreover, in test [3] (72 h), the EC50 was found to be 5 nM.

In the case of `C[C@@H]1CN(CC(=O)N2CC(C)(C)c3ncc(C(F)(F)c4ccccc4)cc32)[C@@H](CN2CC[C@@H](F)C2)CN1` [Example 221, 1-{6-[Difluoro(phenyl)methyl]-3,3-dimethyl-1H,2H,3H-pyrrolo[3,2-b]pyridin-1-yl}-2-[(2R,5R)-2-{[(3R)-3-fluoropyrrolidin-1-yl]methyl}-5-methylpiperazin-1-yl]ethan-1-one dihydrochloride], the IC50 in test [1] came to 73 nM. Moreover, the inhibition at […] in test [2] came to 78%. Besides, the EC50 in test [3] (72 h) amounted to 54 nM.

Turning to `C[C@@H]1CN(CC(=O)N2CC(C)(C)c3ncc(C(C)(F)F)cc32)[C@@H](CN2CCc3cccnc32)CN1` [Example 222, 1-[6-(1,1-Difluoroethyl)-3,3-dimethyl-1H,2H,3H-pyrrolo[3,2-b]pyridin-1-yl]-2-[(2R,5R)-5-methyl-2-{1H,2H,3H-pyrrolo[2,3-b]pyridin-1-ylmethyl}piperazin-1-yl]ethan-1-one dihydrochloride], the IC50 in test [1] was 220 nM; in test [2], less than 1000 nM; in test [2] (setting [5]) it was 140 nM. Further, the EC50 in test [3] (72 h) was 9600 nM.

For `CCCC(F)(F)c1cnc2c(c1)N(C(=O)CN1C[C@@H](C)NC[C@@H]1CN1CC[C@@H](F)C1)CC2(C)C` [Example 223, 1-[6-(1,1-Difluorobutyl)-3,3-dimethyl-1H,2H,3H-pyrrolo[3,2-b]pyridin-1-yl]-2-[(2R,5R)-2-{[(3R)-3-fluoropyrrolidin-1-yl]methyl}-5-methylpiperazin-1-yl]ethan-1-one hydrochloride], in test [1], the IC50 stood at 120 nM. In test [2] (Probe B, @ 0.012 μM), the inhibition at […] came to 62%. In test [3] (72 hours, Alamar Blue), the EC50 is 81 nM.

`C[C@@H]1CN(CC(=O)N2CC(C)(C)c3cnc(C(F)(F)c4ccccc4)cc32)[C@@H](CN2CCOCC2)CN1` [Example 224, 1-{6-[Difluoro(phenyl)methyl]-3,3-dimethyl-1H,2H,3H-pyrrolo[3,2-c]pyridin-1-yl}-2-[(2R,5R)-5-methyl-2-(morpholin-4-ylmethyl)piperazin-1-yl]ethan-1-one dihydrochloride]: in test [1], the inhibition at 0.04 µM was found to be 77%. For the same compound, the inhibition at […] in test [2] was found to be 83%. The EC50 in test [3] (72 hours, Alamar Blue) stood at 19 nM.

In the case of `CC(C)CC(F)(F)c1cc2c(cn1)C(C)(C)CN2C(=O)CN1C[C@@H](C)NC[C@@H]1CN1CCCC1=O` [Example 225, 1-{[(2R,5R)-1-{2-[6-(1,1-Difluoro-3-methylbutyl)-3,3-dimethyl-1H,2H,3H-pyrrolo[3,2-c]pyridin-1-yl]-2-oxoethyl}-5-methylpiperazin-2-yl]methyl}pyrrolidin-2-one hydrochloride], the inhibition at 0.04 µM in test [1] (@ 0.04 μM) was 62%. Also, the inhibition at […] in test [2] (Probe B, @ 0.012 μM) stood at 72%. Moreover, the EC50 in test [3] (72 hours, Alamar Blue) was 48 nM.

As for `C[C@@H]1CN(CC(=O)N2CC(C)(C)c3ncc(C(F)(F)C4CCC4)cc32)[C@@H](CN2CCCC2=O)CN1` [Example 226, 1-{[(2R,5R)-1-{2-[6-(Cyclobutyldifluoromethyl)-3,3-dimethyl-1H,2H,3H-pyrrolo[3,2-b]pyridin-1-yl]-2-oxoethyl}-5-methylpiperazin-2-yl]methyl}pyrrolidin-2-one dihydrochloride], the values for the IC50 in test [1], in test [2] and in test [2] (setting [5]) were 46 nM, less than 1000 nM and 21 nM, respectively. The EC50 in test [3] (72 h) came out at 400 nM.

In the case of `CCCC(F)(F)c1cc2c(cn1)C(C)(C)CN2C(=O)CN1C[C@@H](C)NC[C@@H]1CN1CCCC1=O` [Example 227, 1-{[(2R,5R)-1-{2-[6-(1,1-Difluorobutyl)-3,3-dimethyl-1H,2H,3H-pyrrolo[3,2-c]pyridin-1-yl]-2-oxoethyl}-5-methylpiperazin-2-yl]methyl}pyrrolidin-2-one hydrochloride], the inhibition at 0.04 µM in test [1] (@ 0.04 μM) came to 60%. Besides, the inhibition at […] in test [2] (Probe B, @ 0.012 μM) came out at 78%. In addition, the EC50 in test [3] (72 hours, Alamar Blue) worked out at 27 nM.

For `C[C@@H]1CN(CC(=O)N2CC(C)(C)c3ncc(C(C)(F)F)cc32)[C@@H](CN2CCN(C)C(=O)C2)CN1` [Example 228, 4-{[(2R,5R)-1-{2-[6-(1,1-Difluoroethyl)-3,3-dimethyl-1H,2H,3H-pyrrolo[3,2-b]pyridin-1-yl]-2-oxoethyl}-5-methylpiperazin-2-yl]methyl}-1-methylpiperazin-2-one dihydrochloride], the IC50 is 99 nM in test [1], less than 1000 nM in test [2] and 24 nM in test [2] (setting [5]). For the same compound, in test [3] (72 h), the EC50 stood at 680 nM.

`CC(C)CC(F)(F)c1cc2c(cn1)C(C)(C)CN2C(=O)CN1C[C@@H](C)NC[C@@H]1CN1CCOCC1` [Example 229, 1-[6-(1,1-Difluoro-3-methylbutyl)-3,3-dimethyl-1H,2H,3H-pyrrolo[3,2-c]pyridin-1-yl]-2-[(2R,5R)-5-methyl-2-(morpholin-4-ylmethyl)piperazin-1-yl]ethan-1-one hydrochloride]: in test [1] (@ 0.04 μM), the inhibition at 0.04 µM amounted to 53%. In test [2] (Probe B, @ 0.012 μM), the inhibition at […] was determined as 73%. Also, in test [3] (72 hours, Alamar Blue), the EC50 is 38 nM.

For `C[C@@H]1CN(CC(=O)N2CC(C)(C)c3ncc(C(F)(F)CC4CC4)cc32)[C@@H](CN2CCCC2=O)CN1` [Example 230, 1-{[(2R,5R)-1-{2-[6-(2-Cyclopropyl-1,1-difluoroethyl)-3,3-dimethyl-1H,2H,3H-pyrrolo[3,2-b]pyridin-1-yl]-2-oxoethyl}-5-methylpiperazin-2-yl]methyl}pyrrolidin-2-one formate], the inhibition at 0.04 µM in test [1] came to 53%. The inhibition at […] in test [2] is 60%. In addition, the EC50 in test [3] (72 hours, Alamar Blue) came out at 110 nM.

Consider `C[C@@H]1CN(CC(=O)N2CC(C)(C)c3ncc(C(F)(F)CC4CC4)cc32)[C@@H](CN2CCOCC2)CN1` [Example 231, 1-[6-(2-Cyclopropyl-1,1-difluoroethyl)-3,3-dimethyl-1H,2H,3H-pyrrolo[3,2-b]pyridin-1-yl]-2-[(2R,5R)-5-methyl-2-(morpholin-4-ylmethyl)piperazin-1-yl]ethan-1-one dihydrochloride], for which the values for the IC50 in test [1], in test [2] and in test [2] (setting [5]) were 65 nM, less than 1000 nM and 9.5 nM, respectively. Besides, the EC50 in test [3] (72 h) was determined as 67 nM.

On to `C[C@@H]1CN(CC(=O)N2CC(C)(C)c3ncc(C(F)(F)c4ccccc4)cc32)[C@@H](CN2CCOCC2)CN1` [Example 232, 1-{6-[Difluoro(phenyl)methyl]-3,3-dimethyl-1H,2H,3H-pyrrolo[3,2-b]pyridin-1-yl}-2-[(2R,5R)-5-methyl-2-(morpholin-4-ylmethyl)piperazin-1-yl]ethan-1-one dihydrochloride], for which the inhibition at 0.04 µM in test [1] is 48%. Also, the inhibition at […] in test [2] came out at 77%. In addition, in test [3] (72 hours, Alamar Blue), the EC50 was 36 nM.

For the compound `CCCC(F)(F)c1cc2c(cn1)C(C)(C)CN2C(=O)CN1C[C@@H](C)NC[C@@H]1Cc1nccs1` [Example 233, 1-[6-(1,1-Difluorobutyl)-3,3-dimethyl-1H,2H,3H-pyrrolo[3,2-c]pyridin-1-yl]-2-[(2S,5R)-5-methyl-2-(1,3-thiazol-2-ylmethyl)piperazin-1-yl]ethan-1-one hydrochloride], the IC50 in test [1] came to 76 nM. The inhibition at […] in test [2] (Probe B, @ 0.012 μM) was found to be 62%. The EC50 in test [3] (72 hours, Alamar Blue) was 91 nM.

(Values after patent US9018214B2, “Bicyclic heterocycle compounds and their uses in therapy” (Astex Therapeutics Limited, priority 2011, dated 2015).)
